Measurements published in US20240269128A1, “COMPOUNDS FOR TREATING OR PREVENTING ALZHEIMER'S DISEASE” (THE UNITED STATES OF AMERICA, as represented by the …, priority 2021, published 2024).

Experiments:
[1] = test system: hippocampal CA1 synapses of APP/PS1 mice; assay: Late long-term potentiation, field recordings in hippocampal slices; parameters: species or system mouse; settings: for S1 fEPSP slope at the end of the experiment / potentiation of S1 fEPSP slope after STET: APP/PS1 slices
[2] = test system: SH-SY5Y-hTau441(V337M/R406W) cells; assay: Tau phosphorylation assay (Phospho(Thr231)/Total Tau); assay type: cell-based, human
Experimental: Tau Phosphorylation: SH-SY5Y-hTau441(V337M/R406W) cells were maintained in culture medium (DMEM medium, 10% FCS, 1% NEAA, 1% L-Glutamine, 100 g/mL Gentamycin, 300 μg/mL Geneticin G-418) and differentiated with 10 μM retinoic acid (RA) for 5 days changing medium every 2 to 3 days. Prior to the treatment, cells were seeded onto 24-well plates at a cell density of 2×10^5 cells per well (DIV1). Drug compounds were applied on DIV2. After 24 h of incubation (DIV3), cells on 24-well plates were harvested in 60 μL RIPA-Buffer [50 mM Tris pH 7.4, 1% Nonidet P40, 0.25% Na-deoxy-cholate, 150 mM NaCl, 1 mM EDTA supplemented with freshly added 1 μM NaF, 0.2 mM Na-ortho-vanadate, 80 μM Glycerophosphate, protease (Calbiochem) and phosphatase (Sigma) inhibitor cocktail]. Protein concentration was determined by BCA assay (Pierce, ThermoFisher) and samples were adjusted to a uniform total protein concentration. Total Tau and phosphorylated Tau were determined by immunosorbent assay from Mesoscale Discovery (Phospho(Thr231)/Total Tau Kit K15121D, Mesoscale Discovery).
Tau phosphorylation: SH-SY5Y-hTau441(V337M/R406W) cells were maintained in culture medium (DMEM medium, 10% FCS, 1% NEAA, 1% L-Glutamine, 100 μg/mL Gentamycin, 300 μg/mL Geneticin G-418) and differentiated with 10 μM retinoic acid (RA) for 5 days changing medium every 2 to 3 days. Prior to the treatment, cells were seeded onto 24-well plates at a cell density of 2×10^5 cells per well (DIV1). HCQ (25 μM) was applied on DIV2. After 24 h of incubation (DIV3), cells on 24-well plates were harvested in 60 μL RIPA-Buffer [50 mM Tris pH 7.4, 1% Nonidet P40, 0.25% Na-deoxy-cholate, 150 mM NaCl, 1 mM EDTA supplemented with freshly added 1 μM NaF, 0.2 mM Na-ortho-vanadate, 80 μM Glycerophosphate, protease (Calbiochem) and phosphatase (Sigma) inhibitor cocktail]. Protein concentration was determined by BCA assay (Pierce, ThermoFisher) and samples were adjusted to a uniform total protein concentration. Total Tau and phosphorylated Tau were determined by immunosorbent assay from Mesoscale Discovery (Phospho(Thr231)/Total Tau Kit K15121D, Mesoscale Discovery).
Tau Phosphorylation: SH-SY5Y-hTau441(V337M/R406W) cells were maintained in culture medium [DMEM medium, 10% FCS, 1% nonessential amino acids (NEAA), 1% l-glutamine, gentamycin (100 μg/ml), and geneticin G-418 (300 μg/ml)] and differentiated with 10 μM retinoic acid for 5 days changing medium every 2 to 3 days. […] Protein concentration was determined by BCA assay (Pierce, Thermo Fisher Scientific, Waltham, MA), and samples were adjusted to a uniform total protein concentration. Total tau and phosphorylated tau were determined by immunosorbent assay from Mesoscale Discovery [Phospho(Thr231)/Total Tau Kit K15121D, Mesoscale Discovery, Meso Scale Diagnostics]. […]

[3] = test system: murine microglial cell line BV-2; assay: LPS-induced neuroinflammation in BV-2 microglial cells (cytokines by MSD V-PLEX, MTT); assay type: cell-based, mouse
Experimental: Lipopolysaccharide (LPS)-Induced Neuroinflammation: The murine microglial cell line BV-2 was cultivated in DMEM medium supplemented with 10% FCS, 1% penicillin/streptomycin and 2 mM L-glutamine (culture medium). For LPS stimulation assay, 5000 BV-2 cells per well (uncoated 96 well plates) were plated out and the medium was changed to treatment medium (DMEM, 5% FCS, 2 mM L-glutamine). After changing cells to treatment medium, drug compounds were administered 1 hour before LPS stimulation (Sigma-Aldrich; L6529; 1 mg/ml stock in ddH2O, final concentration in well: 100 ng/ml (dilutions in medium)). Cells treated with vehicle, cells treated with LPS alone, as well as cells treated with LPS plus reference item (dexamethasone 10 μM, Sigma D4902) served as controls. After 24 h of stimulation, cell supernatants were collected for the cytokine measurement (V-PLEX Proinflammatory Panel 1 Mouse Kit, K15048D, Mesoscale) and cells were subjected to MTT assay.
MTT Assay: MTT solution was added to each well in a final concentration of 0.5 mg/mL. After 2 h, the MTT containing medium was aspirated. Cells were lysed in 3% SDS and the formazan crystals were dissolved in isopropanol/HCl. Optical density was measured with a Cytation 5 (Biotek) multimode reader at wavelength 570 nm. Values were calculated as percent of control values (vehicle control or lesion control).
After changing cells to treatment medium, HCQ (0.25 μM, 2.5 μM and 25 μM) was applied 1 hour before LPS stimulation (Sigma-Aldrich; L6529; 1 mg/ml stock in ddH2O, final concentration in well: 100 ng/ml (dilutions in medium)).

H4-hAPP cells = assay: Aβ secretion assay; assay type: cell-based, human
Experimental: (§1) Aβ Secretion: H4-hAPP cells were cultivated in Opti-MEM supplemented with 10% FCS, 1% penicillin/streptomycin 200 μg/mL Hygromycin B and 2.5 μg/mL Blasticidin S. H4-hAPP cells were seeded into 96 well plates (2×10^4 cells per well). On the next day, cells in 96 well plates were treated with compounds, R.I. (DAPT 400 nM) or vehicle. 24 h later, supernatants were collected for further Aβ measurements by MSD® (V-PLEX Aβ Peptide Panel 1 (6E10) Kit, K15200E, Mesoscale Discovery).
as §1, with “secretion: Human APP overexpressing” for “Secretion:”, “HCQ (0.25 μM, 2.5 μM and 25 μM) or the reference item” for “with compounds, R.I.”, “nM), a γ-secretase inhibitor” for “nM) or”
(§2) Cultivation and treatment of H4-hAPP cells: H4-hAPP cells were thawed and cultivated in Opti-MEM supplemented with 10% FCS, 1% penicillin/streptomycin 200 μg/ml Hygromycin B and 2.5 μg/ml Blasticidin S (=culture medium). H4-hAPP cells were seeded into 96 well plates (2×10^4 cells per well). On the next day, cells in 96 well plates were treated with TUDCA (100 μM (C1), 10 μM (C2), or 1.0 μM (C3)), R.I. (DAPT 400 nM) or vehicle. Alternatively, cells in 96 well plates were treated with 25 μM HCQ/0.1 μM TUDCA (C1), 2.5 μM HCQ/100 μM TUDCA (C2), and 2.5 μM HCQ/10 μM TUDCA (C3). 24 h later, supernatants were collected for further Aβ measurements by MSD. The experiment was performed in n=6 technical replicates for all groups.
(§3) Aβ38, 40, 42 measurement: Supernatants were diluted 1:10 and analyzed for human Aβ38, 40, and 42 with MSD® 96-well MULTI-SPOT® 6E10 Abeta Triplex Assay (Mesoscale Discovery, Rockville, MD). The immune assay was carried out according to the manual and plates are read on the MESO QuickPlex SQ 120 multiplexing instrument. Analyte levels were evaluated according to adequate Aβ peptide standards (MSD) as pg per mL.
Aβ Secretion: H4-hAPP cells were cultivated in Opti-MEM supplemented with 10% FCS, 1% penicillin/streptomycin, hygromycin B (200 μg/ml), and blasticidin S (2.5 μg/ml). H4-hAPP cells were seeded into 96-well plates (2×10^4 cells per well). On the next day, cells in 96-well plates were treated with compounds, reference item [400 nM N-[N-(3,5-difluorophenacetyl-1-alanyl)]-S-phenylglycine t-butyl ester (DAPT)], or vehicle. Twenty-four hours later, supernatants were collected for further Aβ measurements by MSD [V-PLEX Aβ Peptide Panel 1 (6E10) Kit, K15200E, Mesoscale Discovery].
as §2, with “Culture” for “Cultivation”, “T.I.,” for “TUDCA (100 μM (C1), 10 μM (C2), or 1.0 μM (C3)),”, “vehicle.” for “vehicle. Alternatively, cells in 96 well plates were treated with 25 μM HCQ/0.1 μM TUDCA (C1), 2.5 μM HCQ/100 μM TUDCA (C2), and 2.5 μM HCQ/10 μM TUDCA (C3).”
as §3, with “measurement in H4-hAPP cells:” for “measurement:”, “Discovery).” for “Discovery, Rockville, MD).”, “were” for “are”, “120.” for “120 multiplexing instrument.”

[4] = test system: hippocampal cell cultures; settings: Rzemieniec et al. 2019; cited from earlier work
BV-2 cells = assay: Aβ1-42 clearance assay; assay type: cell-based, mouse; settings: posterior probability of a protective effect, Bayesian dose-response model
Experimental: AB Clearance: For the amyloid beta (Aβ) clearance assay, 20000 BV-2 cells per well (uncoated 96 well plates) were plated out. After changing cells to treatment medium, drug compounds were administered 1 hour before Aβ stimulation (Bachem 4061966; final concentration in well: 200 ng/ml (dilutions in medium)). Cells treated with vehicle and cells treated with Aβ alone served as controls. After 3 h of Aβ stimulation, cell supernatants were collected for the Aβ measurement and cells were carefully washed twice with PBS and thereafter lysed in 35 μL cell lysis buffer (50 mM Tris-HCl, pH 7.4, 150 mM NaCl, 5 mM EDTA, 1% SDS) supplemented with protease inhibitors. Supernatants and cell lysates were analyzed for human Aβ42 with MSD® V-PLEX Human Aβ42 Peptide (6E10) Kit (K151LBE, Mesoscale Discovery). The immune assay was carried out according to the manual and plates were read on the MESO QuickPlex SQ 120.
Aβ1-42 clearance: For Abeta (Aβ1-42) clearance assay, 20,000 BV-2 cells per well (uncoated 96 well plates) were plated out. After changing cells to treatment medium, HCQ (0.25 μM, 2.5 μM and 25 μM) was applied 1 hour before Aβ1-42 stimulation (Bachem 4061966; final concentration in well: 200 ng/ml (dilutions in medium)). Cells treated with vehicle (0.1% DMSO) and cells treated with Aβ1-42 alone served as controls. After 3 h of Aβ1-42 stimulation, cell supernatants were collected for the Aβ1-42 measurement and cells were carefully washed twice with PBS and thereafter lysed in 35 μL cell lysis buffer (50 mM Tris-HCl, pH 7.4, 150 mM NaCl, 5 mM EDTA, 1% SDS) supplemented with protease inhibitors. Supernatants and cell lysates were analyzed for human Aβ1-42 with MSD® V-PLEX Human Aβ42 Peptide (6E10) Kit (K151LBE, Mesoscale Discovery). The immune assay was carried out according to the manufacturer's manual and plates were read on the MESO QuickPlex SQ 120.
Aβ Clearance: 20,000 BV2 cells per well (uncoated 96-well plates were plated out. After changing cells to treatment medium, drug compounds were administered 1 hour before Aβ stimulation (final concentration in well 200 ng/ml; dilutions in medium). Cells treated with vehicle and cells treated with Aβ alone served as controls. After 3 hours of Aβ stimulation, cell supernatants were collected for the Aβ measurement and cells were carefully washed twice with PBS and thereafter lysed in 35 μl of cell lysis buffer (50 mM tris-HCl, pH 7.4, 150 mM NaCl, 5 mM EDTA, and 1% SDS) supplemented with protease inhibitors. Supernatants and cell lysates were analyzed for human Aβ42 with the MSD V-PLEX Human Aβ42 Peptide (6E10) Kit (K151LBE, Mesoscale Discovery). The immune assay was carried out according to the manual, and plates were read on MESO QuickPlex SQ 120 (Meso Scale Diagnostics, Rockville, MD).
For Aβ clearance assay, 20,000 BV-2 cells per well (uncoated 96 well plates) were plated out. After 24 hours, medium was changed to treatment medium (DMEM, 5% FCS, 2 mM L-glutamine) and cells were maintained in treatment medium for the remaining culture period. After changing cells to treatment medium, the test items were administered 1 hour before Aβ stimulation (Bachem 4061966; final concentration in well: 200 ng/mL (dilutions in medium)). Cells treated with vehicle, cells treated with Aβ alone, as well as wells with Aβ but no cells served as controls. All wells were handled the same way. After 3 h of Aβ stimulation, cell supernatants were collected for the Aβ measurement and cells were carefully washed twice with PBS and thereafter lysed in 35 μl cell lysis buffer (50 mM Tris-HCl, pH 7.4, 150 mM NaCl, 5 mM EDTA, 1% SDS) supplemented with protease inhibitors. Cells were incubated for 15 min at RT on a plate shaker, samples were frozen at −80° C. until further use. The experiment was performed in n=6 technical replicates for all groups. […]

[5] = test system: hippocampal neuronal cells; settings: Lee et al. 2019; cited from earlier work
iPSCs = assay: LPS induced neuroinflammation (iPSCs); assay type: cell-based; settings: posterior probability of a protective effect
Experimental: Cell-based assays: For each combination of drugs and assay, the posterior probability P(Hi|data) of protective, neutral, and adverse drug effect (formal hypotheses H1, H0, H2, respectively) were evaluated. Dose-response relationships (x-y data) were modeled with a Bayesian nonlinear regression model:
and Bayesian estimation of the posterior density of the fold change was performed using default settings of the Markov chain Monte Carlo samples implemented by the PyMC python library. For efficient sample, each bioactivity data set was standardized such that […] corresponded to one standard deviation. Diagnostic criteria (posterior sample of fitted curves, effective sample sizes, values of the r statistic, and Markov chain standard errors) were inspected for the fit and three poorly fitted data sets out of a total of 91 data sets were excluded.

SMILES: CCN(CCO)CCCC(C)Nc1ccnc2cc(Cl)ccc12 (racemic) [HCQ racemic free base]
- late-LTP in APP/PS1 mice ([1]; 25 μM HCQ racemic free base): partial rescue
- late-LTP in APP/PS1 mice ([1]; 50 μM HCQ racemic free base): diminished initial potentiation which did not last
- late LTP in age-matched WT mice ([1]; 50 μM HCQ racemic free base, preliminary (n=1)): partially impaired
- S1 fEPSP slope at the end of the experiment ([1]; 25 μM HCQ racemic free base): 118.003±7.753%
- potentiation of S1 fEPSP slope after STET ([1]; 25 μM HCQ racemic free base): 155.545±12.309%
- S1 fEPSP slope at the end of the experiment ([1]; 50 μM HCQ racemic free base): 119.117±8.167%
- potentiation of S1 fEPSP slope after STET ([1]; 50 μM HCQ racemic free base): 128.809±8.116%

SMILES: COc1ccc(S(=O)(=O)Nc2cc(-c3c(O)ccc4ccccc34)c(O)c3ccccc23)cc1 [C188-9, N-[4-hydroxy-3-(2-hydroxynaphthalen-1-yl)naphthalen-1-yl]-4-methoxybenzenesulfonamide]
- phosphorylated tau 231 (ptau) ([2]; 10 μM, 24 h, relative to VC): significantly reduced
- release of IL-1β ([3]; 0.3 μM and 0.6 μM, relative to LPS): significantly reduced
- release of IL-6 ([3]; 0.6 μM, 24 h LPS stimulation, relative to LPS): significantly reduced
- cell viability ([3]; C188-9 in LPS assay, results not shown): no adverse effects on cell viability
- Aβ42: Aβ40 ratio (H4-hAPP cells; 1 μM, relative to VC): significantly reduced
- endogenous Aβ1-42 (H4-hAPP cells; 1 μM, relative to VC): significantly reduced
- cell viability (H4-hAPP cells; C188-9 in Aβ secretion assay, results not shown): no adverse effects on cell viability

SMILES: Cc1c[nH]c(-c2cnc(NCCNc3ccc(C#N)cn3)nc2-c2ccc(Cl)cc2Cl)n1 [CHIR]
- phosphorylated Tau ([2]; reference item, compared to vehicle control): significantly reduced

SMILES: C[C@H](NC(=O)Cc1cc(F)cc(F)c1)C(=O)N[C@H](C(=O)OC(C)(C)C)c1ccccc1 [DAPT, N-[N-(3,5-difluorophenacetyl-1-alanyl)]-S-phenylglycine t-butyl ester]
- Aβ species (Aβ1-38, 1-40 and 1-42) in supernatant (H4-hAPP cells; reference item, 400 nM, 24 h): significantly reduced all tested species

SMILES: c1ccc2c(Cc3c[nH]c4ccccc34)c[nH]c2c1 [DIM, 3,3′-diindolylmethane]
- LTP in APP/PS1 slices ([1]; 10 μM DIM, acute application): rescues LTP
- late LTP in APP/PS1 slices ([1]; 3-hour pre-incubation with 10 μM DIM): no longer results in rescue
- ischemia-induced apoptosis and autophagy [4]: protect
- effect in Aβ clearance (BV2 cells) (BV-2 cells): strongly protective
- oxidative stress-induced apoptosis [5]: inhibit
- effect in LPS induced neuroinflammation (iPSCs) (iPSCs): strongly protective
- effect in LPS induced neuroinflammation (BV2 cells) ([3]; posterior probability of a protective effect): protective
